The results in this text go back to KR20070023630A, “티로신 키나제 억제제로서의 퀴나졸린 유도체” (아스트라제네카 아베, priority 2003, dated 2005).

In general, IC50 refers to the point on the concentration scale where inhibition reaches its midpoint.

SMILES strings stand for the structures.

This assay relates to erbB2 phosphorylation in MCF7-derived cell line (MCF7 유래의 세포주에서 erbB2의 인산화). Description: Test (c): clone 24 phospho-erbB2 cell assay. The class given is cell-based. The note with it: Homo sapiens, clone 24 cells (MCF7-derived, overexpressing full-length erbB2), read-out: IC50 test (c): inhibition of erbB2 tyrosine kinase protein phosphorylation.
For `CN(C)CC(=O)N1CCC(Oc2ccc3ncnc(Nc4ccc(OCc5ccccn5)c(Cl)c4)c3c2)CC1` [실시예 8, N-[3-클로로-4-(피리딘-2-일메톡시)페닐]-6-({1-[(디메틸아미노)아세틸]피페리딘-4-일}옥시)퀴나졸린-4-아민], the IC50 is 210 nM. The figure for `CN(C)CC(=O)N1CCC(Oc2ccc3ncnc(Nc4ccc(OCc5cnccn5)c(Cl)c4)c3c2)CC1` [실시예 9, N-[3-클로로-4-(피라진-2-일메톡시)페닐]-6-({1-[(디메틸아미노)아세틸]피페리딘-4-일}옥시)퀴나졸린-4-아민] is 150 nM; for `CS(=O)(=O)N1CCC(COc2ccc3ncnc(Nc4ccc(OCc5ccccn5)c(Cl)c4)c3c2)C1` (stereo not drawn) [실시예 14, N-[3-클로로-4-(피리딘-2-일메톡시)페닐]-6-{[1-(메틸술포닐)피롤리딘-3-일]메톡시}퀴나졸린-4-아민] it is 4 nM.
